Here are results for five compounds from ChEMBL document CHEMBL4138130, “Effect of mofezolac-galactose distance in conjugates targeting cyclooxygenase (COX)-1 and CNS GLUT-1 carrier” (Eur J Med Chem, 2017).

Active and inactive are the calls of the source. No cut-off for these calls is given here.

Data set [1] has as its target T1, Prostaglandin G/H synthase 2 (Homo sapiens, UniProt P35354).
T1 sequence (P35354 whole entry): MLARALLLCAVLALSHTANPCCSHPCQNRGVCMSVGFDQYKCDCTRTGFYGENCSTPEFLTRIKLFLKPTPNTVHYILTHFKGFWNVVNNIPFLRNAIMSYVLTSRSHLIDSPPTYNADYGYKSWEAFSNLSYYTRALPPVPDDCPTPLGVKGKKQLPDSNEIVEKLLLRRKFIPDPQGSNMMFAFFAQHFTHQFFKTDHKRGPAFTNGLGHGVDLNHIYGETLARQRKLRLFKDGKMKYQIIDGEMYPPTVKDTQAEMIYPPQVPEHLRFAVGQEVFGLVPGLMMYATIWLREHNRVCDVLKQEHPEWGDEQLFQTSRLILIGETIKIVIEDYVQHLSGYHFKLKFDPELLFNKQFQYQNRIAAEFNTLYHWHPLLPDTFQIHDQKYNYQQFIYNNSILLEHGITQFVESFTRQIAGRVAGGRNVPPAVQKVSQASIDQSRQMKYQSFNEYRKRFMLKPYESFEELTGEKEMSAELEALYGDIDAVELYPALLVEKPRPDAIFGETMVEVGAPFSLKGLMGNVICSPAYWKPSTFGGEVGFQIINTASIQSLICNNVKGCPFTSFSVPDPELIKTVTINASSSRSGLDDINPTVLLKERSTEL
The experiment in a line: Inhibition of human COX2 assessed as reduction in appearance of oxidized TMPD using arachidonic acid as substrate by colorimetric assay.

For data set [2], the target named is T2, GLUT1 (Solute carrier family 2, facilitated glucose transporter member 1) (Homo sapiens, UniProt P11166).
T2 sequence (P11166 whole entry): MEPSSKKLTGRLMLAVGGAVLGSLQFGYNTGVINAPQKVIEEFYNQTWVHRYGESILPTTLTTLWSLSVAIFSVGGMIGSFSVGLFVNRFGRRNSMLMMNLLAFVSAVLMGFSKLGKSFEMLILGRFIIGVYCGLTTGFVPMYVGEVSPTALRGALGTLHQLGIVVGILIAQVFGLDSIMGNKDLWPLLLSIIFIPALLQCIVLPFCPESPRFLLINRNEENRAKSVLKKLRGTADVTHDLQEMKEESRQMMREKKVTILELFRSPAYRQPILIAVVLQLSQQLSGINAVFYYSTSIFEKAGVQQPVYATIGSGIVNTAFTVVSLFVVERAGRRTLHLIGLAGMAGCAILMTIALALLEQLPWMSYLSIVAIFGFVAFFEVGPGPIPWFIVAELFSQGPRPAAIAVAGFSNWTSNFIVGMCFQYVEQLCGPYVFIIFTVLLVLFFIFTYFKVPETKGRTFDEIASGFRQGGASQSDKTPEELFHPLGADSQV
Nature of the data set: Apparent permeability across basolateral to apical side in human Caco2 cells assessed as GLUT1-mediated drug transport at 100 uM after 120 mins by UV-Visible spectroscopic method. The conditions noted are these: Caco-2. The format is ADME, cell-based. In general terms: Caco-2 cells form a polarised layer with tight junctions and transporters.

The subject of data set [3] is Caco-2. Nature of the data set: Cell cycle arrest in human Caco2 cells assessed as accumulation at G0/G1-phase at 100 uM after 24 hrs by propidium iodide staining based flow cytometry. The format is functional.
Data set [4] concerns Caco-2. The experiment in a line: Cell cycle arrest in human Caco2 cells assessed as accumulation at G2/M-phase at 100 uM after 24 hrs by propidium iodide staining based flow cytometry. The format is functional. Background: Flow cytometry measures light scatter and fluorescence of single cells or particles in a stream.
For data set [5], the species on record is Homo sapiens. The experiment in a line: Selectivity index, ratio of IC50 for inhibition of human COX2 to IC50 for inhibition of human COX1.
For data set [6], the target named is T3, Prostaglandin G/H synthase 1 (Homo sapiens, UniProt P23219). Nature of the data set: Inhibition of human COX1 assessed as reduction in appearance of oxidized TMPD using arachidonic acid as substrate by colorimetric assay.
T3 sequence (P23219 whole entry): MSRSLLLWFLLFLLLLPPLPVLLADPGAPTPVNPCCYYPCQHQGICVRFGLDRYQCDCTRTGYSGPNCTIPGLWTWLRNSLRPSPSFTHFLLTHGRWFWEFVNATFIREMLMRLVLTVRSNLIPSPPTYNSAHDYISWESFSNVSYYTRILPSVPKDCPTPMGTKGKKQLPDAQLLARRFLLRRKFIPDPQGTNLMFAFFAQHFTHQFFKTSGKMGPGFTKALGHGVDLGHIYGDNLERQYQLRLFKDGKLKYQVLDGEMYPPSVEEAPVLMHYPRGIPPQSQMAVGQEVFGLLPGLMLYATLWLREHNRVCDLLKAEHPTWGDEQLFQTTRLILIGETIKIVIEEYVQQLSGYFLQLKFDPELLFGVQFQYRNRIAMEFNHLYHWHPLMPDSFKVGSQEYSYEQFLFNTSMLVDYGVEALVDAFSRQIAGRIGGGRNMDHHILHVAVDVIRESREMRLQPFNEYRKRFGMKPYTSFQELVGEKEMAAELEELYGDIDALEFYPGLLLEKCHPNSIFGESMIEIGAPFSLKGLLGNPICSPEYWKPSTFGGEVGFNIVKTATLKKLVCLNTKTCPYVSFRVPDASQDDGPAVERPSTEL
Data set [7] has as its system Caco-2. The experiment in a line: Cell cycle arrest in human Caco2 cells assessed as accumulation at S-phase at 100 uM after 24 hrs by propidium iodide staining based flow cytometry. The format is functional.
For data set [8], the target named is T4, Solute carrier family 2, facilitated glucose transporter member 1 (Homo sapiens, UniProt P11166).
T4 sequence (P11166 whole entry): T2 sequence (P11166 whole entry)
The experiment in a line: Permeability across basolateral to apical side in human Caco2 cells assessed as GLUT1-mediated drug transport by transportability method. The conditions noted are these: Caco-2. It is filed as ADME, cell-based.

Data set [9] in a line: Apparent permeability across apical to basolateral side in human Caco2 cells at 100 uM after 120 mins by UV-Visible spectroscopic method. It is filed as ADME, cell-based. The conditions noted are these: Caco-2.
In data set [10] the target is T3, Prostaglandin G/H synthase 1. Nature of the data set: Inhibition of human COX1 assessed as reduction in appearance of oxidized TMPD at 50 uM using arachidonic acid as substrate by colorimetric assay relative to control.
For data set [11], the target named is T5, Prostaglandin G/H synthase 2 (Homo sapiens) (UniProt P35354).
T5 sequence (whole entry): T1 sequence (P35354 whole entry)
Nature of the data set: Inhibition of human COX2 assessed as reduction in appearance of oxidized TMPD at 50 uM using arachidonic acid as substrate by colorimetric assay relative to control.

The target of data set [12] is T4, Solute carrier family 2, facilitated glucose transporter member 1. The experiment in a line: Inhibition of GLUT1-mediated 2NBDG uptake in human Caco2 cells at 0.01 to 0.1 mM after 10 mins by Hoechst 33342 staining based fluorescence assay. The format is cell-based. The conditions noted are these: caco-2, 10 min, 100 µM.
Data set [13] in a line: Retention time of the compound by HPLC analysis. It is filed as physicochemical.
A short description of data set [14]: Chemical stability in pH 8.8 simulated gut district fluid at 2.5 mg/ml after 60 mins by HPLC analysis. The format is ADME, physicochemical. The conditions noted are these: buffer, pH 8.8, 1 h.
Data set [15] addresses T6, Prostaglandin G/H synthase 1 (Mus musculus) (UniProt P22437).
T6 sequence (whole entry): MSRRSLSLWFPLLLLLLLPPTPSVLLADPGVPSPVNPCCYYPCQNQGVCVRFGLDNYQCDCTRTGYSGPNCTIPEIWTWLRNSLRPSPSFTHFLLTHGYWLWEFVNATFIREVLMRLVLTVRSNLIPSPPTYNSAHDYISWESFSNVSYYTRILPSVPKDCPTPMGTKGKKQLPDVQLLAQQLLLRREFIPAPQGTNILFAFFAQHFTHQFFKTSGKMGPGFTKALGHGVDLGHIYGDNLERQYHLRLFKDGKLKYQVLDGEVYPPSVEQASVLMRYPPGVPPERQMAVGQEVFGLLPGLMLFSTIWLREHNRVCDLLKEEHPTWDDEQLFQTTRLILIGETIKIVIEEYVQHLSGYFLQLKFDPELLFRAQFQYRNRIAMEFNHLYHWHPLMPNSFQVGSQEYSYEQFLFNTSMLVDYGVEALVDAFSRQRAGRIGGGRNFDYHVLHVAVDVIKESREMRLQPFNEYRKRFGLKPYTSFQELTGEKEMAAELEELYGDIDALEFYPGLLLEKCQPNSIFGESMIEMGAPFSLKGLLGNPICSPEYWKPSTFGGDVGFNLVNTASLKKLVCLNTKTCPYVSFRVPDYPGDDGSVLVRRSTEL
The experiment in a line: Inhibition of COX1 in mouse BV2 cells assessed as reduction in LPS-stimulated PGE2 release by measuring PGE2 level at 1 uM preincubated for 1 hr followed by LPS addition measured after 48 hrs by immunoassay (reference value: 0.7555 +/- 0.032 ng/ml). It is filed as cell-based.

Data set [16] addresses T6, Prostaglandin G/H synthase 1 (Mus musculus). Nature of the data set: Inhibition of COX1 in mouse BV2 cells assessed as reduction in LPS-stimulated PGE2 release by measuring PGE2 level at 0.5 uM preincubated for 1 hr followed by LPS addition measured after 48 hrs by immunoassay (reference value: 0.7555 +/- 0.032 ng/ml). The format is cell-based.
Data set [17] has the same target. The experiment in a line: Inhibition of COX1 in mouse BV2 cells assessed as reduction in LPS-stimulated PGE2 release by measuring PGE2 level at 10 uM preincubated for 1 hr followed by LPS addition measured after 48 hrs by immunoassay (reference value: 0.7555 +/- 0.032 ng/ml). It is filed as cell-based.
Data set [18] can be described thus: Metabolic stability in rat liver S9 fraction after 30 mins in presence of NADP+ by HPLC analysis. The conditions noted are these: s9, 0.5 h. The format is ADME, subcellular.
Data set [19] in a line: Chemical stability in pH 1 simulated gastric fluid at 2.5 mg/ml after 60 mins by HPLC analysis. It is filed as ADME, physicochemical. The conditions noted are these: simulated gi fluid, pH 1, 1 h.
Data set [20] is described as follows: Chemical stability in pH 7.3 simulated blood fluid at 2.5 mg/ml after 60 mins by HPLC analysis. It is filed as ADME, physicochemical. The conditions noted are these: pH 7.3, 1 h.
In data set [21] the target is T4, Solute carrier family 2, facilitated glucose transporter member 1. The experiment in a line: Inhibition of GLUT1-mediated 2NBDG uptake in human Caco2 cells at 1 to 10 mM after 10 mins by Hoechst 33342 staining based fluorescence assay. It is filed as cell-based. The conditions noted are these: caco-2, 10 min, 10000 µM.

For orientation: IC50 means the midpoint of a concentration-inhibition curve. The term Papp B→A denotes how fast a substance crosses the layer from the basolateral side. What is called Papp A→B is the apparent permeability from the apical to the basolateral side of a cell layer. The inhibition is the drop in the measured response relative to a control, in per cent.

Turning to `COc1ccc(-c2noc(CC(=O)NCCCCCCCCCCC(=O)OC[C@H]3OC(O)[C@H](O)[C@@H](O)[C@H]3O)c2-c2ccc(OC)cc2)cc1` (some centres not stated), the IC50 in data set [1] is 270 nM; in [6], 400 nM. In addition, the Papp B→A at 2 h, 100 µM in data set [2] is 58.7 ×10⁻⁶ cm/s. In addition, the outcome in [3], in data set [4] and in data set [7] was inactive. For the same compound, the Ratio IC50 in data set [5] stood at 0.67. Also, the permeability result in data set [8] is reported as “Permeable”. Also, the Papp A→B at 2 h, 100 µM in data set [9] was 16.9 ×10⁻⁶ cm/s. For the same compound, the inhibition in [10] came out at 90%; in [11], 64%. Further, in [12], the “inhibition (INH)” value is on record as “Active”.
The compound `COc1ccc(-c2noc(CC(=O)OC[C@H]3O[C@@H](O)[C@H](O)[C@@H](O)[C@H]3O)c2-c2ccc(OC)cc2)cc1` yielded a Retention_time in data set [13] of 7.504 min. The results for the IC50 in [1] and in data set [6] were 3100 nM and 270 nM, respectively. Moreover, the Papp B→A at 2 h, 100 µM in data set [2] is 87.5 ×10⁻⁶ cm/s. The result in data set [3], in [4] and in data set [7] was inactive. In addition, the Ratio IC50 in data set [5] came to 11.5. Besides, the Stability entry in data set [14], in data set [18], in [19] and in data set [20] was “Stable” each time. The Activity in [15] was determined as 0.0178 ng/mL; in [16], 0.0086 ng/mL; in data set [17] it was 0.0103 ng/mL. Moreover, the permeability entry in data set [8] is listed as “Permeable”. For the same compound, the Papp A→B at 2 h, 100 µM in [9] was found to be 38 ×10⁻⁶ cm/s. Also, the inhibition in data set [10] was found to be 100%; in [11], 87%. Moreover, in [12], the “inhibition (INH)” value is listed as “Active”.
For `COc1ccc(-c2noc(CC(=O)O)c2-c2ccc(OC)cc2)cc1` [MOFEZOLAC], in data set [2], the Papp B→A at 2 h, 100 µM came to 46.1 ×10⁻⁶ cm/s. Also, the result in [3], in data set [4] and in [7] was inactive. For the same compound, in data set [16], the Activity stood at 0.0328 ng/mL. Also, the permeability entry in data set [8] is “Permeable”. Further, the Papp A→B at 2 h, 100 µM in [9] was 41.4 ×10⁻⁶ cm/s. The inhibition in data set [10] came to 100%; in [11] it was 38%.
In the case of `COc1ccc(-c2noc(CC(=O)NCCCCC(=O)OC[C@H]3OC(O)[C@H](O)[C@@H](O)[C@H]3O)c2-c2ccc(OC)cc2)cc1` (some centres not stated), the IC50 in [1] and in data set [6] was more than 50000 nM each time. Further, the Papp B→A at 2 h, 100 µM in data set [2] is 113 ×10⁻⁶ cm/s. Moreover, the result in [4] and in data set [7] was Active. Moreover, the permeability result in data set [8] is listed as “Permeable”. Besides, the Papp A→B at 2 h, 100 µM in data set [9] amounted to 23.3 ×10⁻⁶ cm/s. The inhibition in [10] was determined as 38%; in [11], 24%. The “inhibition (INH)” value in [12] is “Active”.
As to `OC[C@H]1OC(O)[C@H](O)[C@@H](O)[C@@H]1O` (some centres not stated) [DEXTROSE], in data set [21], the “inhibition (INH)” value is given as “Active”.
